Reference: the supplement of paper PMC10307832

Legend:
Test in all cases: relative viability (nuclei count vs DMSO), 5 days (fraction); higher = more cells survive
Obatoclax + Pemetrexed = compound: COC1=CC(c2cc3ccccc3[nH]2)=N/C1=C\c1[nH]c(C)cc1C [Obatoclax] + Nc1nc2[nH]cc(CCc3ccc(C(=O)N[C@@H](CCC(=O)O)C(=O)O)cc3)c2c(=O)[nH]1 [Pemetrexed] (partner 0.2 µM)
Outline: (§1)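 For relative viability, nuclei counts in treated wells were divided by those in vehicle wells. Lung cancer cell lines had been pin-tool dosed in 1536-well plates the day after seeding and cultured for 5 days, then fixed and stained in one step (final 0.05% Triton X-100, 1% formaldehyde, 1 ug/ml Hoechst) and imaged at 4×. Doses were one drug alone or a fixed anchor-drug dose plus five library-drug doses (not always all listed) in √10 steps, and values are duplicate-plate medians.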

Bortezomib + Phenformin = compound: CC(C)C[C@H](NC(=O)[C@H](Cc1ccccc1)NC(=O)c1cnccn1)B(O)O [Bortezomib] + N=C(N)NC(=N)NCCc1ccccc1 [Phenformin] (partner 250 µM)
Outline: as §1

Obatoclax + Bortezomib = compound: COC1=CC(c2cc3ccccc3[nH]2)=N/C1=C\c1[nH]c(C)cc1C [Obatoclax] + CC(C)C[C@H](NC(=O)[C@H](Cc1ccccc1)NC(=O)c1cnccn1)B(O)O [Bortezomib] (partner 0.002 µM)
Outline: as §1

[1] = compound: CC1=CC(=NN1)NC2=CC(=NC(=N2)/C=C/C3=CC=CC=C3)N4CCN(CC4)C + O=C(c1cc(Cc2n[nH]c(=O)c3ccccc23)ccc1F)N1CCN(C(=O)C2CC2)CC1 [Olaparib] (partner 8 µM)
Outline: as §1

Cell Line	relative viability (Obatoclax + Pemetrexed; first compound 0.01 µM)	relative viability (Obatoclax + Pemetrexed; first compound 0.03162 µM)	relative viability (Obatoclax + Pemetrexed; first compound 0.1 µM)	relative viability (Obatoclax + Pemetrexed; first compound 0.3162 µM)	relative viability (Obatoclax + Pemetrexed; first compound 1 µM)	relative viability (Bortezomib + Phenformin; first compound 0.0002 µM)	relative viability (Bortezomib + Phenformin; first compound 0.000632 µM)	relative viability (Bortezomib + Phenformin; first compound 0.002 µM)	relative viability (Bortezomib + Phenformin; first compound 0.006325 µM)	relative viability (Bortezomib + Phenformin; first compound 0.02 µM)	relative viability (Obatoclax + Bortezomib; first compound 0.01 µM)	relative viability (Obatoclax + Bortezomib; first compound 0.03162 µM)	relative viability (Obatoclax + Bortezomib; first compound 0.1 µM)	relative viability (Obatoclax + Bortezomib; first compound 0.3162 µM)	relative viability (Obatoclax + Bortezomib; first compound 1 µM)	relative viability ([1]; first compound 0.08 µM)	relative viability ([1]; first compound 0.253 µM)	relative viability ([1]; first compound 0.8 µM)	relative viability ([1]; first compound 2.53 µM)	relative viability ([1]; first compound 8 µM)
201T	0.339	0.315	0.282	0.34	0.359	0.456	0.402	0.483	0.44	0.24	1.09	1.01	1.13	1.1	1.1	0.838	0.837	0.828	0.819	0.487
A549	–	–	–	–	–	0.154	0.231	0.18	0.0502	0.0365	–	–	–	–	–	0.292	0.529	0.287	0.156	0.0245
A-427	0.95	0.965	0.74	0.909	0.75	0.253	0.246	0.339	0.212	0.11	1.02	0.966	1.01	1.01	0.944	0.815	0.774	0.913	0.468	0.158
ABC-1	–	–	–	–	–	0.231	0.227	0.202	0.186	0.175	0.323	0.134	0.23	0.323	0.212	0.904	0.946	1.01	0.647	0.324
BEN	0.852	0.534	0.44	0.618	0.762	0.258	0.266	0.264	0.259	0.174	0.826	0.735	0.356	0.734	0.838	0.985	1.17	0.987	0.606	0.275
CAL-12T	1.04	1.16	1.13	0.896	0.149	0.552	0.585	0.586	0.25	0.114	0.969	1.02	0.915	0.697	0.567	0.714	0.741	0.714	0.238	0.237
COR-L23	0.193	0.188	0.197	0.203	0.182	0.466	0.429	0.4	0.0535	0.0571	0.962	1	0.961	0.461	0.187	0.335	0.339	0.32	0.126	0.0705
COR-L 105	1.13	1.01	1.15	1.27	0.584	0.542	0.4	0.428	0.328	0.256	0.989	0.782	0.777	0.432	0.335	0.591	0.688	0.691	0.658	0.27
Calu-6	–	–	–	–	–	–	–	–	–	–	1.03	1.02	0.979	0.955	0.191	0.577	0.558	0.469	0.289	0.0899
ChaGo-K-1	0.243	0.252	0.261	0.265	0.274	0.416	0.455	0.45	0.462	0.153	1.11	0.949	–	0.968	1.23	0.371	0.42	0.38	0.234	0.148
EBC-1	–	–	–	–	–	–	–	–	–	–	0.637	0.602	0.481	0.341	0.232	0.631	0.753	0.7	0.46	0.114
EKVX	0.397	–	0.358	0.372	0.436	0.238	0.237	0.238	0.239	0.139	1.05	1.01	1.03	1.01	1.13	0.779	0.804	0.904	0.695	0.157
EMC-BAC-2	0.42	0.47	0.395	0.452	0.419	0.551	0.459	0.477	0.209	0.211	1.15	1.04	1.03	1.1	1.16	0.465	0.521	0.445	0.341	0.197
EPLC-272H	0.324	0.387	0.422	0.327	0.263	0.353	0.245	0.35	0.109	0.0723	0.833	0.88	1.05	0.864	0.894	0.725	0.901	0.496	0.12	0.0643
H3255	0.54	0.51	0.498	0.471	0.597	0.368	0.346	0.334	0.307	0.288	0.764	0.784	0.725	0.762	0.793	0.553	0.568	0.599	0.575	0.326
